According to US20250064762A1, “A SUBSTITUTED AROMATIC DICARBONIC ACID AMIDE AS AN INHIBITOR OF THE FERROPTOSIS SUPPRESSOR PROTEIN-1 (FSP1)” (JULIUS-MAXIMILIANS-UNIVERSITÄT WÜRZBURG, priority 2021, published 2025):

Tests used:
IHH, AML12, RAW264.7 = test: FIN56 toxicity in non-transformed hepatocytes and a monocyte/macrophage cell line; type: cell-based; settings: CPBA 100 μM, iFSP1 10 μM; 16 h
Method: Cell culture media and supplements were from Thermo Fisher Scientific, unless specified otherwise. Mouse embryonic fibroblasts (MEFs) were generated from Pgp-wildtype (Pgp^fl/fl) or heterozygous Pgp-inactivated mouse embryos (Pgp^fl/D34N) as described (Segerer et al., 2016). […]
Cells were seeded onto 96-well plates (5,000 cells per well), and treated with serial dilutions of ferroptosis-inducing compounds (erastin, BSO, RSL3, FIN56) or cytotoxic drugs (staurosporine, nocodazole, tunicamycin, paclitaxel, etoposide, menadione, rotenone, FCCP, carboplatin) in the absence or presence of CPBA or iFSP1 (100 μM or 10 μM, respectively; unless stated otherwise) or the DMSO solvent control. Ferroptotic cell death was evaluated by incubating in the absence or presence of liproxstatin-1 (100 nM), ferrostatin-1 (200 nM), or deferoxamine (100 μM). Cell viability was assessed after 16 h using AquaBluer as an indicator of viable cells according to the manufacturer's recommendations (MultiTarget Pharmaceuticals, LLC). Fluorescence (excitation, 540 nm; emission, 590 nm) was analyzed on a Clariostar microplater reader. […]

[1] = test system: HT1080, Du145 or PC3 cells; test: Cell viability with CPBA alone, no ferroptosis inducers; type: cell-based; settings: 16 h
Method: Cells were seeded onto 96-well plates (5,000 cells per well), and treated with serial dilutions of ferroptosis-inducing compounds (erastin, BSO, RSL3, FIN56) or cytotoxic drugs (staurosporine, nocodazole, tunicamycin, paclitaxel, etoposide, menadione, rotenone, FCCP, carboplatin) in the absence or presence of CPBA or iFSP1 (100 μM or 10 μM, respectively; unless stated otherwise) or the DMSO solvent control. Ferroptotic cell death was evaluated by incubating in the absence or presence of liproxstatin-1 (100 nM), ferrostatin-1 (200 nM), or deferoxamine (100 μM). Cell viability was assessed after 16 h using AquaBluer as an indicator of viable cells according to the manufacturer's recommendations (MultiTarget Pharmaceuticals, LLC). Fluorescence (excitation, 540 nm; emission, 590 nm) was analyzed on a Clariostar microplater reader.
To study the effect of increasing CPBA concentrations in the absence of ferroptosis inducers on the viability of HT1080, Du145 or PC3 cells. Cells were incubated with the indicated concentrations of CPBA alone or in the presence of ferroptosis inhibitors deferoxamine (DFO, an iron-chelator and ferroptosis inhibitor); ferrostatin (fer, a ferroptosis inhibitor); liproxstatin-1 (lip-1, a ferroptosis inhibitor); or zVAD-FMK (a pan-caspase and apoptosis inhibitor), and cell viability was analyzed after 16 h.

HT1080 cells [2] = test: Western blot of ferroptosis regulators GPX4, ACSL4 and FSP1; type: cell-based, human; settings: 100 μM CPBA; 16 h; liproxstatin-1 100 nM
Method: Cultured cells were lysed in 50 mM Tris, pH 7.5; 150 mM NaCl; 1% (v/v) Triton X-100; 0.5% (w/v) sodium deoxycholate; 0.1% (w/v) sodium dodecyl sulfate; 5 μg/mL aprotinin, 1 μg/mL leupeptin, 1 μg/mL pepstatin, and 1 mM 4-(2-aminoethyl)benzenesulfonyl fluoride (Pefabloc). Protein concentrations were determined using the Micro BCA Protein Assay Kit (Thermo Fisher Scientific). Proteins were separated by SDS-PAGE, transferred to nitrocellulose membranes by semidry-blotting, and incubated with the indicated antibodies.
Western blots were quantified using the public domain NIH Image program (developed at the U.S. National Institutes of Health, http://rsb.info.nih.gov/nih-image/). Statistical analysis was performed using GraphPad Prism version 7.05 or 9.1.2 (GraphPad, San Diego, CA, USA).
HT1080 cells were cultured in the presence of liproxstatin-1 (100 nM), and incubated for 16 h with the solvent control DMSO (0.1%), RSL3 (1 μM), FIN56 (10 μM), or BSO (100 μM) in the presence of either 0.1% DMSO (−) or 100 μM CPBA (+). Cells were lysed and probed with the indicated antibodies as described above. […] Quantification of relative intensity of Western Blot bands was performed as described above (see FIG. 7).

HT1080 cells [3] = test: Lipid droplet staining with BODIPY 493/503; type: cell-based, human; settings: CPBA 100 μM; T863 10 μM and PF-06424439 5 μM; 16 h
Method: HT1080 cells were seeded on glass coverslips (15,000 cells per well of 12-well plate) in complete DMEM, and incubated for 16 h with 100 μM CPBA or with 0.1% of the DMSO solvent control, in the absence or presence of inhibitors of DGAT1 and DGAT2 (10 μM T863/iDGAT1; 5 μM PF-06424439/iDGAT2). Cells were fixed with 4% para-formaldehyde, lipid droplets were stained with the neutral lipid droplet stain BODIPY 493/503 (2 μM, 30 min), and nuclei were counterstained with 4′,6-diamidino-2-phenylindole (DAPI). Cells were mounted with Immu-Mount (Fisher Scientific), and imaged by fluorescence microscopy on a THUNDER imager (THUNDER Imager Live Cell & 3D Cell Culture & 3D Assay system, Leica DMI8; Leica Microsystems), using a 63× objective.
We next investigated the impact of CPBA on triglyceride levels and ferroptosis sensitivity by first imaging lipid droplets with the neutral lipid stain BODIPY 493/503.
The diglyceride acyltransferase isoforms 1 and 2 (DGAT1, DGAT2) are required to catalyze the formation of triglycerides from diacylglycerol and acyl-CoA.

Row | SMILES | toxicity of FIN56 in non-transformed cell lines on addition of the compound (IHH, AML12, RAW264.7) | cell death with the compound alone ([1]; 400 μM CPBA) | concentrations at which the compound alone is not cytotoxic ([1]; no ferroptosis inducers) | expression of GPX4, ACSL4 and FSP1 (HT1080 cells [2]) | lipid droplets (HT1080 cells [3])
1 | Cc1ccc(-c2c(C#N)c(N)n3c(nc4ccccc43)c2C#N)cc1 [iFSP1, reference compound] | not markedly increased by the addition of CPBA or iFSP1 |  |  |  | 
2 | O=C(Nc1ccccc1C(=O)O)c1ccc(Oc2ccc(C(=O)Nc3ccccc3C(=O)O)cc2)cc1 [CPBA, 2-[[4-[4-[(2-carboxyphenyl)carbamoyl]phenoxy]benzoyl]amino]-benzoic acid] |  | Non-ferroptotic, non-apoptotic cell death is observed | up to 200 μM | not affected by the presence of CPBA | triggered the accumulation of lipid droplets in HT1080 cells
